In paper PMC7182439 (Cell, 2019) one finds IC50 and EC50 data, which are given here for 2 molecules.

Test [1] has as its target T1, SpCas9 (Streptococcus pyogenes, UniProt Q99ZW2). Kind of test: in vitro DNA cleavage assay. It counts as biochemical.
Test [2] addresses T1, SpCas9. As to the kind of experiment: eGFP-disruption assay. It counts as cell-based.

T1 sequence (Q99ZW2 whole entry): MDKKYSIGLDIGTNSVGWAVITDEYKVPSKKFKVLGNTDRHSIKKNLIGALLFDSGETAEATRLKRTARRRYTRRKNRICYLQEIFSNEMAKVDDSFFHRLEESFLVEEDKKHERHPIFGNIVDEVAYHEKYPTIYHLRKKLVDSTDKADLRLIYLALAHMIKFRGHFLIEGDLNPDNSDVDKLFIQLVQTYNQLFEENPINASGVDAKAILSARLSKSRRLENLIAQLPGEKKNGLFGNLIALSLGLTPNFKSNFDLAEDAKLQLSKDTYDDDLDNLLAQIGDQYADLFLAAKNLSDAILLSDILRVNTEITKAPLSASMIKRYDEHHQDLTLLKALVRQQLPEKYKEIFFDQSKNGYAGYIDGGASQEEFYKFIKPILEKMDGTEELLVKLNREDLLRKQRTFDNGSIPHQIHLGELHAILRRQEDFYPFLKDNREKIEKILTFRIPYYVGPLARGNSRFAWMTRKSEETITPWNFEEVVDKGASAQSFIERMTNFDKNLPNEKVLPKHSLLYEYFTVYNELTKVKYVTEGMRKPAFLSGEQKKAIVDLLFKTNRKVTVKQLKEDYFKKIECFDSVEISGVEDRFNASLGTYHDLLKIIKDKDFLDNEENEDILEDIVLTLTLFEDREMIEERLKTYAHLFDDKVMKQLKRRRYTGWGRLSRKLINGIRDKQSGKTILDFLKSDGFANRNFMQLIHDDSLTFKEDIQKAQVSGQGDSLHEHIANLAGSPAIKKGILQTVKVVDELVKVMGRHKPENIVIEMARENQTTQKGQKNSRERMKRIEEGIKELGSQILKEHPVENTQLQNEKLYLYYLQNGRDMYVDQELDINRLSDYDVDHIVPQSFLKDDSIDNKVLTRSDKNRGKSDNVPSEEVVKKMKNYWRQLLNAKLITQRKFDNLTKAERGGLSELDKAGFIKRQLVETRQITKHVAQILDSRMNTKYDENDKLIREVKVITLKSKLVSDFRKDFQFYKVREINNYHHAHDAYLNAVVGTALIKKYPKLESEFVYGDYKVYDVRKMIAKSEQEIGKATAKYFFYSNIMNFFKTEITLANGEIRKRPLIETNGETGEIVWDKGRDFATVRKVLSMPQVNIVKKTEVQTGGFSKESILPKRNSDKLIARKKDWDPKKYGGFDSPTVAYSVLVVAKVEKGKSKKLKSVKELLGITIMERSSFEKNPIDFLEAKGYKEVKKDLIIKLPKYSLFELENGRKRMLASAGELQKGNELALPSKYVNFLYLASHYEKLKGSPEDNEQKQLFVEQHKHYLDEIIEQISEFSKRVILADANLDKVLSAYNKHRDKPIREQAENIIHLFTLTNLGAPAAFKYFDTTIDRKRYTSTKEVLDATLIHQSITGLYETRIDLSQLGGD

As for `Cc1ccc(S(=O)(=O)N2CC[C@@H]3[C@H](CO)Nc4ccc(-c5ccccc5F)cc4[C@@H]32)cc1` [BRD0539], in test [1], the IC50 (as a rule, the concentration that inhibits the measured activity by half) turned out to be 22 µM.

`COc1cccc(-c2ccc3c(c2)[C@H]2[C@H](CCN2C(=O)Cc2ccncc2)[C@H](CO)N3C)c1` [BRD3433]: the EC50 (in general, the concentration needed to bring the measured effect to its halfway point) in test [2] was found to be 9.3 µM.
